In data set [1] the test system is HL-60 cells. In words: MTT viability assay in proliferative HL-60 cells. The conditions noted are these: for IC50: proliferative HL-60 cells, mean ± SD, n = 3; for IC50 / effect on HL-60 cell viability (in words): MTT; for cytotoxic effect (in words): after 24 h; for effect on HL-60 cell viability (in words): doses up to 50 µM, 24, 48 and 72 h. Type of data set: cell-based, human. Here is the method: The human acute myeloid leukemia cell line HL-60 (ATCC® CCL-240™) was used to test the Brassica spp. phytochemicals. Maintenance of the cells was performed as previously described. Briefly, cells were grown in RPMI-1640 medium (Biowest) supplemented with 10% fetal bovine serum (FBS; Gibco, Thermo Fisher Scientific, Madrid, Spain) and 1% penicillin/streptomycin (Gibco, Thermo Fisher Scientific, Madrid, Spain), at 37 °C with 5% CO2 and 90% humidity. All in vitro assays were performed after passage number 5 and before passage number 20 with cells growing at an exponential ratio.
The anti-tumor activity of the compounds was evaluated by the MTT (3-(4,5-dimethylthiazol-2-yl)-2,5-diphenyltetrazolium bromide) viability assays as described previously. In brief, HL-60 cells were cultured at a concentration of 10^5 cells/mL (exponential growth rate) in 96-well plates containing 200 μL of cell culture medium and exposed to different doses of the tested compounds (0.5 μM, 1 μM, 5 μM, 10 μM, 25 μM, and 50 μM) for 24, 48, and 72 h. Then, MTT (Thermo Fisher) was added at a final concentration of 483 μM (0.2 mg/mL) and cells were incubated for 1 h at 37 °C and 5% CO2. Afterward, cells were lysed using an acidified isopropanol solubilization solution containing 0.04 M hydrochloric acid and 0.1% NP-40 detergent to release the formazan. Finally, the absorbance was measured at 550 nm using a SPECTROstar Nano (BMG Labtech, Germany) plate reader. The compound cytotoxicity was normalized to the control conditions (untreated with an equivalent dose of vehicle (DMSO) when applicable).

Data set [2] can be described thus: MTT viability assay in macrophage-like differentiated HL-60 cells. It is filed as cell-based, human. The conditions noted are these: human, macrophage-like differentiated HL-60 cells (PMA), differentiated HL-60 cells, 48 h, MTT, mean ± SD. How it is done: (§1) In order to test the specificity of the compounds as potential anti-tumor/cytotoxic agents with no collateral negative effects upon non-proliferative cells, the series of compounds were also assayed in an in vitro model of human macrophage-like cells derived from the same HL-60 cell line. To obtain these differentiated macrophage-like cells, HL-60 human leukemia cells growing at an exponential rate in suspension were exposed to a dose of 10 ng/mL of phorbol myristate acetate (PMA) (Sigma-Aldrich, Merck, Análisis Vínicos SL, Tomelloso, Spain) for 24 h in 96-well plates at a cell density of 0.2·10^6 HL-60 cells/well at 37 °C and 5% CO2. Cells were then incubated in culture media without PMA for another 24 h in the same culture conditions. After differentiation and resting periods, differentiated cells were treated for 48 h with compound solutions at different concentrations. Finally, MTT assays were performed as previously explained to measure cell viability. All experiments were performed in triplicate and in three independent experiments.
(Formazan colour is commonly taken as a measure of viable cells.)

Data set [3] deals with NRF2/KEAP1 signaling pathway. In words: RT-qPCR gene expression in undifferentiated HL-60 cells. It is filed as cell-based, human. The conditions noted are these: for expression levels of the NRF2-target genes HMOX, NQO1 and GSTA1 (in words): undifferentiated HL-60, RT-qPCR, dose-dependent. The source says: Total RNA was extracted from HL-60 cells using the GenElute Mammalian Total RNA Miniprep kit (Sigma) following the manufacturer’s instructions. RNA was eluted in RNAse-free water and checked for concentration and purity using the Nanodrop spectrophotometer system (ND-100 3.3. Nanodrop Technologies, Thermo Scientific, Madrid, Spain). Only samples with a ratio of Abs260/Abs280 between 1.8 and 2.1 were used for gene expression assays. cDNA was generated using a high-capacity RNA-to-cDNA kit (Thermo Fisher Scientific, Madrid, Spain) according to the manufacturer’s protocol. PCR amplification was carried out with PowerUp SYBR Green PCR Master Mix (Applied Biosystems, Waltham, MA, USA) using a Fast 7500 Real-Time instrument (Applied Biosystems, Waltham, MA, USA). The obtained data were analyzed using the 7500 SDS software (Applied Biosystems, Waltham, MA, USA). Actin beta (ACTB) and Glyceraldehyde 3-phosphate dehydrogenase (GAPDH) were used as reference genes. Both were considered suitable reference genes for gene expression normalization based on geNorm and/or Bestkeeper stability analysis. The gene-stability measures were performed using the RefFinder tool. Relative expression was calculated using the 2^−ΔΔCt method. All experiments were performed in triplicate and in three independent experiments.

The test system of data set [4] is HL-60 cells. Also noted: method as in PMID 15135302. The conditions noted are these: apoptosis induction and cytodifferentiation; cited from earlier work.
In data set [5] the test system is HL-60 differentiated cells. As to the kind of experiment: MTT viability assay in macrophage-like differentiated HL-60 cells. Type of data set: cell-based, human. How it is done: as §1
[6] abbreviates: Homo sapiens, HL-60, higher dose (50 µM), 48 h, read-out: cell viability.

This is an account of results in paper PMC9657236, “Anti-Leukemic Activity of Brassica-Derived Bioactive Compounds in HL-60 Myeloid Leukemia Cells” (International Journal of Molecular Sciences, 2022).

Read-outs that look alike come from different tables or passages of the source.

Consider `OC[C@H]1O[C@@H](Oc2cc3c(O)cc(O)cc3[o+]c2-c2ccc(O)c(O)c2)[C@H](O)[C@@H](O)[C@@H]1O` [C3G, cyanidin-3-glucoside chloride], for which the cell viability entry with HL-60 cells [1] (10–50 µM doses, 24 h) is “around 40%”; in the data set with HL-60 cells [1] (25 and 50 µM, 48 h and 72 h), “below 20%”. The IC50 (as a rule, the point on the concentration scale where inhibition reaches its midpoint) is 7 ± 1 µM with HL-60 cells [1] (Homo sapiens, 48 h treatment) and 21.9 ± 0.3 µM with HL-60 cells [1] (Homo sapiens, 72 h treatment). The viability – broadly, a read-out of living cells in per cent, often relative to untreated cells – at 48 h, 10 µM in data set [2] came to 114 ± 24.4%. Further, in data set [2], the viability at 48 h, 25 µM turned out to be 108 ± 7.4%. Also, in data set [2], the viability at 48 h, 50 µM was found to be 107 ± 12.8%. The “expression levels of the NRF2-target genes HMOX, NQO1 and GSTA1 (in words)” value (shortened to “expression levels”) in data set [3] is “markedly induce”. Besides, the “concentrations needed to inhibit the proliferative capacity of HL-60 cells” value in the data set on HL-60 cells [4] is > 100 µM.

Consider `O=C(/C=C/c1ccc(O)c(O)c1)O[C@@H]1C[C@](O)(C(=O)O)C[C@@H](O)[C@H]1O` [CQA, Chlorogenic acid], for which the viability at 25 µM in the data set on HL-60 cells [1] (Homo sapiens, HL-60, 25 µM treatment, 48 and 72 h, read-out: cell viability) was < 50%. The viability at 50 µM in the data set on HL-60 cells [1] (setting [6]) turned out to be 13%. Moreover, the viability at 50 µM in the data set with HL-60 cells [1] (Homo sapiens, HL-60, higher dose (50 µM), 72 h, read-out: cell viability) amounted to 11%. This molecule also registered an IC50 in the data set on HL-60 cells [1] (Homo sapiens, 48 h treatment) of 17.4 ± 0.7 µM. Moreover, in the data set with HL-60 cells [1] (Homo sapiens, 72 h treatment), the IC50 is 28.9 ± 0.7 µM. In data set [2], the viability at 48 h, 10 µM was 114 ± 19.2%; the viability at 48 h, 25 µM was found to be 114 ± 20.6%; the viability at 48 h, 50 µM stood at 109 ± 11.8%. Besides, in data set [3], the “expression levels” value was “markedly induce”.

As for `c1ccc2c(Cc3c[nH]c4ccccc34)c[nH]c2c1` [DIM, 3,3′-Diindolmethane], in the data set with HL-60 cells [1] (setting [6]), the viability at 50 µM amounted to 25%. Further, in the data set with HL-60 cells [1], the “cytotoxic effect (in words)” value is recorded as “mild but significant cytotoxic effect”. Further, in the data set on HL-60 cells [1] (higher dose (50 µM), 48 h), the maximum cytotoxicity is given as 75%. For the same molecule, in data set [2], the viability at 48 h, 10 µM amounted to 102 ± 22.7%; the viability at 48 h, 25 µM was 118 ± 27.2%; the viability at 48 h, 50 µM stood at 105 ± 13.5%.

With `O=S(=O)(O)O/N=C(/Cc1c[nH]c2ccccc12)S[C@@H]1O[C@H](CO)[C@@H](O)[C@H](O)[C@H]1O` [GBS, glucobrassicin], the “effect on HL-60 cell viability (in words)” value in the data set on HL-60 cells [1] is given as “did not show any effect”.

On to `CSCCCCC(=NOS(=O)(=O)O)SC1OC(CO)C(O)C(O)C1O` (stereo not drawn) [GER, glucoerucin], for which the “effect on HL-60 cell viability (in words)” value in the data set with HL-60 cells [1] was “did not show any significant effects”.

As to `C[S+]([O-])CCCC/C(=N\OS(=O)(=O)O)S[C@@H]1O[C@H](CO)[C@@H](O)[C@H](O)[C@H]1O` (stereo partly drawn) [GRA, glucoraphanin], the “effect on HL-60 cell viability (in words)” value in the data set with HL-60 cells [1] was “did not show any significant effects”.

Consider `OCc1c[nH]c2ccccc12` [I3C, indole-3-carbinol], for which the viability at 50 µM in the data set on HL-60 cells [1] (Homo sapiens, HL-60, maximum dose (50 µM), 24 h, read-out: cell viability) amounted to 38%. The “cytotoxic effect (in words)” value in the data set on HL-60 cells [1] was “mild but significant cytotoxic effect”. In addition, in data set [2], the viability at 48 h, 10 µM is 93.6 ± 8%; the viability at 48 h, 25 µM amounted to 99.5 ± 5.4%; the viability at 48 h, 50 µM was 95.1 ± 10.4%.

Take `C[S+]([O-])CCCCN=C=S` (stereo not drawn) [SFN, sulforaphane]: the cytotoxicity levels entry in the data set with HL-60 cells [1] (25 µM and 50 µM, all time points (24, 48 and 72 h)) is on record as “above 95%”. Moreover, the IC50 in the data set with HL-60 cells [1] (Homo sapiens, HL-60, 48 h, 48 h treatment) came out at 6 µM; in the data set with HL-60 cells [1] (Homo sapiens, HL-60, 72 h, 72 h treatment), 11.3 ± 0.5 µM; in the data set on HL-60 cells [1] (48 h treatment), 5.9 ± 0.3 µM. In the data set with HL-60 cells [1] (Homo sapiens, HL-60, 10 µM dose, all time points (24, 48, 72 h)), the viability at 10 µM is < 50%. For the same molecule, in data set [5] (10 µM), the “cytotoxicity in differentiated cells (in words)” value is on record as “did not cause significant cytotoxicity”. Besides, the “cytotoxic effect in differentiated HL-60 cells (in words)” value in data set [5] (concentrations higher than 10 µM, 48 h) was “significant cytotoxic effect”. The viability at 48 h, 10 µM in data set [2] came out at 98.2 ± 12.1%. Besides, in data set [2], the viability at 48 h, 25 µM was 87.6 ± 6.8%. In data set [2], the viability at 48 h, 50 µM amounted to 70 ± 17.5%. Further, the “induction of the NRF2/KEAP1 signaling pathway (in words)” value in data set [3] (HL-60 cells) is recorded as “most potent NRF2 activator”. Further, the “expression levels” value in data set [3] is reported as “markedly induce”.

For the molecule `COc1cc(/C=C/C(=O)O)cc(OC)c1O` [SIA, sinapic acid], the “effect on HL-60 cell viability (in words)” value in the data set on HL-60 cells [1] is reported as “did not have any effect whatsoever”.
